Earlier results in patent US8426044B2, “Method for imparting antimicrobial activity to a medical device” (Board of Regents, The University of Texas System, priority 2009, dated 2013).

Key:
[1] = for solubility in organic solvents: organic solvents incl. alcohols, ketones, ethers, aldehydes, acetonitrile, acetic acid, methylene chloride, chloroform
[2] = tested on: Pseudomonas aeruginosa cells embedded in a biofilm; details: MBC for the identical strain grown in liquid suspension

## CO[C@H]1/C=C/O[C@@]2(C)Oc3c(C)c(O)c4c(O)c(c(/C=N/N5CCN(C)CC5)c(O)c4c3C2=O)NC(=O)/C(C)=C\C=C\[C@H](C)[C@H](O)[C@@H](C)[C@@H](O)[C@@H](C)[C@H](OC(C)=O)[C@@H]1C [Rifampin]
[1]
  solubility in organic solvents: freely soluble in acidic aqueous solutions and organic solutions
  solubility in water: very slightly soluble in water

## [H]/N=C(\N/C(=N/[H])NCCCCCCNC(=N)NC(=N)Nc1ccc(Cl)cc1)Nc1ccc(Cl)cc1 [Chlorhexidine]
[1]
  solubility in organic solvents: soluble in both water and organic solutions
  solubility in water: soluble in both water and organic solutions

## NC[C@H]1O[C@H](O[C@H]2[C@H](O)[C@@H](O[C@H]3O[C@H](CO)[C@@H](O)[C@H](N)[C@H]3O)[C@H](N)C[C@@H]2N)[C@H](N)C[C@@H]1O [tobramycin]
[2]
  antibiotic level unable to kill biofilm-embedded cells: greater than 50 times the minimum bactericidal concentration (MBC)
